Measurements taken from patent US3997598A, “Process for purifying sorbic acid” (Hoechst Aktiengesellschaft, priority 1973, dated 1976).
≈ marks a conversion by molar mass, not a printed value. Read-outs that look alike come from different tables or passages of the source.

Tests used:
[1] = 30% aqueous dipotassium hydrogen phosphate
physchem = conditions: 30% aqueous dipotassium hydrogen phosphate
[2] = cited from earlier work

solubility [1]: 15.1 grams per 100 ml of a salt sol
solubility (physchem): 79 mg/mL (≈ 705 mM)
SMILES: C/C=C/C=C/C(=O)O [sorbic acid]
solubility in water ([2]; 100° C): approximately 3%
solubility in water ([2]; in words): low solubility
